Results as given in US12624068B2, “Exon skipping by peptide nucleic acid derivatives” (OliPass Corporation, priority 2016, dated 2026).
[C(1O2)] = modified PNA monomer acting as cytosine, C(pOq) type, 1O2; [A(5)] = modified PNA monomer acting as adenine, A(p) type, p=5; {Fmoc} = N-terminal Fmoc cap; {NH2} = C-terminal amide

Assays:
serum myoglobin = test: Serum myoglobin level in mdx mice; format: in vivo; settings: DMD-ASO 1 50 pmole/Kg, DMD-ASO 2 or DMD-ASO 6 10 pmole/Kg, 2× per week, Week 66
Description: [Terminal Sacrifice] In Week 48, the animals were subjected to terminal sacrifice for blood sampling. The blood samples were analyzed for the serum level of CK (Creatine Kinase Activity Assay Kit, Cat. Number ab155901, Abcam) and myoglobin (Myoglobin ELISA Kit, Cat. Number ab210965, Abcam) to assess the degree of muscle degradation according to the manufacturer's instructions. Muscle tissues were analyzed by western blot for the full-length dystrophin.
[Terminal Sacrifice] All the survived animals were sacrificed for blood sampling in Week 66 post the grouping. The blood samples were subjected to ELISA assays for serum creatine kinase (CK) and serum myoglobin as described in “DMD Example 6”.

mdx mice = test: Unscheduled death, sacrifice or lymphoma in chronically treated mdx mice; format: in vivo, mouse; settings: DMD-ASO 1 50 pmole/Kg, DMD-ASO 2 or DMD-ASO 6 10 pmole/Kg, subcutaneous 2× per week, 66 weeks
Description: [Grouping & ASO Treatment] Male mdx mice (7 weeks old) were randomly assigned to 4 groups of 0 (mdx negative control), 10, 50, and 200 pmole/Kg “DMD-ASO 1” based on individual grip strength scores by grip test. (N=12 per group) A satellite group of 12 male C57BL/6 mice (7 weeks old) was included in this study as the wild type negative control group for the full-length dystrophin expression level.
The 50 and 200 pmole/Kg group subcutaneously received “DMD-ASO 1” as dissolved in PBS, 2× per week until the final sacrifice in Week 43. In the meantime, the 10 pmole/Kg group subcutaneously received “DMD-ASO 1” initially 2× per week during Week 0 to 8, and 3× per week afterwards to increase the ASO exposure.
[Miscellaneous Findings] There were three cases of unscheduled sacrifice or death (Weeks 26, 39 and 43) in the mdx negative control group due to a large mass of muscular lymphoma developed most likely by chronic muscular inflammation.
“DMD-ASO 1”, “DMD-ASO 2” and “DMD-ASO 6” were evaluated for their physiological effects in male mdx mice by long term subcutaneous administration. In this evaluation the animals were not subjected to physical tests requiring muscular stress in order to keep the transcription of the dystrophin gene undisturbed by excessive muscular stimulation.
[Animals & Grouping] Male mdx mice (6 weeks old) were randomly assigned to 4 groups of the mdx negative control (no ASO treatment), “DMD-ASO 1” 50 pmole/Kg, “DMD-ASO 2” […], and “DMD-ASO 6” […] based on the body weight. (N=12-13 per group) 12 male C57BL/6 mice (6 weeks old) were adopted as the wild type (WT) negative control group.
[Injection Solutions & ASO Treatment] Aqueous mother stock solutions of the ASOs were serially diluted in PBS to prepare the injection solutions of 25 nM “DMD-ASO 1” for 50 pmole/Kg “DMD-ASO 1”, 5 nM “DMD-ASO 2” for “DMD-ASO 2” 10 pmole/Kg, and 5 nM “DMD-ASO 6” for “DMD-ASO 6” 10 pmole/Kg. The animals were subcutaneously administered with the injection solutions at 2 mL/Kg, 2× per week.

complementary 10-mer RNA = test: Tm of 10-mer model PNA with complementary 10-mer RNA; format: binding; settings: for Tm: 4 μM PNA and 4 μM complementary 10-mer RNA, aqueous buffer pH 7.16, uncorrected; for ΔTm (Tm value - Tm value of PNA 10-1): complementary 10-mer RNA
Description: (§1) The 10-mer PNA oligomers in Table 12 were evaluated for their binding affinity for the complementary 10-mer RNA or DNA by measuring Tm values as described below.
(§2) A mixed solution of 4 μM 10-mer PNA oligomer and 4 μM complementary 10-mer DNA or RNA in 4 mL aqueous buffer (pH 7.16, 10 mM sodium phosphate, 100 mM NaCl) in 15 mL polypropylene falcon tube was incubated at 90° C. for a minute and slowly cooled down to ambient temperature. Then the solution was transferred into a 4 mL quartz UV cuvette, and subjected to Tm measurement at 260 nm on a UV/Visible spectrophotometer as described in the prior art [PCT/KR2009/001256] or with minor modifications. The DNA and RNA for Tm measurement were purchased from Bioneer (www.bioneer.com, Dajeon, Republic of Korea) and used without further purification.

complementary 10-mer DNA = test: Tm of 10-mer model PNA with complementary 10-mer DNA; format: binding; settings: for Tm: 4 μM PNA and 4 μM complementary 10-mer DNA, aqueous buffer pH 7.16, uncorrected; for ΔTm (Tm value - Tm value of PNA 10-1): complementary 10-mer DNA
Description: as §1, §2

10-mer complementary DNA = test: Tm between PNA derivatives and 10-mer complementary DNA (N- or C-terminal); format: binding; settings: uncorrected
Description: as §2
PNA derivatives of Formula I were evaluated for their binding affinity for 10-mer DNAs complementarily targeting either the N-terminal or C-terminal. The binding affinity was assessed by the Tm value for the duplex between PNA and 10-mer complementary DNA. The duplex between PNA derivatives and DNAs of full complementarity usually show Tm values too high to be reliably determined in aqueous buffer solution. The aqueous buffer solution tends to boil off during Tm measurement.

[1] = test system: rats with diabetes-induced peripheral neuropathic pain (DPNP); test: Reversal of allodynia (von Frey) in rats with diabetes-induced peripheral neuropathic pain; format: in vivo, rat; settings: 100 pmole/Kg subcutaneous in Days 11, 13, 15, 17 and 19
Description: “SCN-ASO 7”, “SCN-ASO 8”, “SCN-ASO 21”, “SCN-ASO 35”, “SCN-ASO 36” and “SCN-ASO 37” were evaluated for their ability to reverse the allodynia in rats with diabetes-induced peripheral neuropathic pain (DPNP). In this example, the six SCN9A ASOs targeting a total of five splice sites were evaluated for their ability to reverse the allodynia induced by diabetic neuropathy in rats.
[Induction of DPNP and Grouping] Diabetes was induced in rats by an intraperitoneal injection of streptozotocin at 60 mg/Kg in Day 0. In Day 10, rats with DPNP were randomly assigned to […] of negative control (vehicle only), “SCN-ASO 7” 100 pmole/Kg, “SCN-ASO 8” 100 pmole/Kg, “SCN-ASO 21” 100 pmole/Kg, “SCN-ASO 35” 100 pmole/Kg, “SCN-ASO 36” 100 pmole/Kg, and “SCN-ASO 37” 100 pmole/Kg. The animals were grouped based on the von Frey scores of individual animals in Day 10. (N=8-9 per group) Allodynia was scored using a set of microfilaments (Touch Test®) according to the “Up & Down” method. [J Neurosci. Methods vol 53(1), 55-63 (1994)]
[ASO Treatment and von Frey Scoring] ASO solutions for injection were prepared by serially diluting aqueous mother stock solutions of the SCN9A ASOs to 100 nM in PBS (phosphate buffered saline). Animals were subcutaneously administered with ASO at 1 mL/Kg in Days 11, 13, 15, 17 and 19. Von Frey scoring was carried out 2 hours post dose in Days 11, 13, 15, 17 and 19. Von Frey scoring was additionally performed in Days 21 and 23 in order to assess the duration of the therapeutic activity after the final dosing. Daily von Frey scores were evaluated for statistical significance by student's t-test against the negative control group (vehicle only, i.e., PBS).

[2] = test system: sodium current in PC3 cells; test: CoroNa assay of sodium current in PC3 cells; format: cell-based, human; settings: 30 hours
Description: Cellular sodium current is measured by patch clamp. As sodium ions enter cell, the intra-cellular sodium ion level increases. The intra-cellular sodium level can be probed using a sodium ion sensitive dye. “CoroNa Green” is a dye with a sodium ion chelator of crown ether type. Upon chelation with a sodium ion, “CoroNa Green” emits green fluorescence. “CoroNa Green” has been used to indirectly measure the intra-cellular sodium level. […] [Proc. Natl. Acad. Sci. USA vol 106(38), 16145-16150 (2009)]
PC3 cells are known to abundantly express the human SCN9A mRNA, although there are other SCN subtypes concomitantly expressed. [Br J. Pharmacol. vol 156, 420-431 (2009)] Thus an inhibition of SCN9A mRNA expression may lead to a considerable reduction of the sodium current in PC3 cells, if the sodium ion current by the Nav1.7 sodium channel subtype occupies a marked portion of the total sodium ion current in PC3 cells. It is note that the SCN9A mRNA encodes the Nav1.7 sodium channel subtype.
“SCN-ASO 7” was evaluated for its ability to inhibit the sodium ion current in PC3 cells using “CoroNa Green” as follows.
[ASO Treatment] PC3 cells grown in 35 mm culture dish containing 2 mL F-12K medium were treated with “SCN-ASO 7” at 0 zM (negative control), 100 zM or 1 aM.
[CoroNa Assay] 30 hours later, the cells were washed with 2 mL HBSS (Hank's Balanced Salt Solution, Cat. Number 14025-092, Life Technologies), and then charged with 2 mL fresh HBSS. Then the cells were treated with 5 μM “CoroNa Green” (Cat. Number C36676, Life Technologies) at 37° C. 30 min later, the cells were washed 2× with 2 mL HBSS, and charged with 2 mL fresh HBSS. The culture dish was mounted on an Olympus fluorescence microscope equipped with a digital video camera to continuously capture the green fluorescence images of the cells. The cells were acutely treated with 100 mM NaCl, and then the changes in fluorescence cellular images were digitally recorded over a period of 3 min. There were about 4 cells per frame on average. The fluorescence intensities from each individual cell were traced at the resolution of a second. The traces of the intracellular fluorescence intensities from individual cells were overlaid and averaged at each time point. The average of the traces from the individual cells of each ASO concentration were plotted as provided in FIG. 30A using ImageJ program (version 1.50i, NIH). The average fluorescence intensity trace was taken as the individual intra-cellular sodium concentration trace for the cells treated with “SCN-ASO 7” at 0 (negative control), 100 or 1,000 zM.
“SCN-ASO 3” was evaluated for its ability to inhibit the sodium current in PC3 cells using “CoroNa Green” according to the protocol described in “SCN9A Example 5”, unless noted otherwise.
“SCN-ASO 8” was evaluated for its ability to inhibit the sodium current in PC3 cells using “CoroNa Green” according to the protocol described in “SCN9A Example 3”, unless noted otherwise.

SCN9A mRNA = test: SCN9A nested qPCR by SYBR Green in PC3 cells; format: cell-based, human; settings: PC3 cells, 24 hours
Description: “SCN-ASO 7” was evaluated for its ability to inhibit the expression of the human SCN9A mRNA in PC3 cells by qPCR against a set of exon-specific primers as follows. [Cell Culture & ASO Treatment] PC3 cells grown in 60 mm culture dish containing 5 mL culture medium were incubated with “SCN-ASO 7” for 24 hours at 0 (negative control), 10, 100 or 1,000 zM. (2 culture dishes per concentration) [RNA Extraction] […] [cDNA Synthesis by One Step RT-PCR] […] NO: 78); and SCN-exon 9_reverse: (5'→3') […] NO: 79)]. […] [Nested qPCR Amplification] […] NO: 80); SCN-exon 4_reverse: (5'→3') […] NO: 81); SCN-exon 5_forward: (5'→3') […] NO: 82); SCN-exon 5_reverse: (5'→3') […] NO: 83); SCN-exon 6_forward: (5'→3') […] NO: 84); SCN-exon 6_reverse: (5'→3') […] NO: 85)]. The PCR reactions were probed with SYBR Green (Takara, Japan). […] “SCN-ASO 3” was evaluated for its ability to inhibit the expression of the full-length SCN9A mRNA in PC3 cells according to the protocol described in “SCN9A Example 2”, unless noted otherwise. “SCN-ASO 8” was evaluated for its ability to inhibit the expression of the full-length SCN9A mRNA in PC3 cells according to the protocol described in “SCN9A Example 2”, unless noted otherwise.

| Substance | Tm (complementary 10-mer RNA) | ΔTm (Tm value - Tm value of PNA 10-1) (complementary 10-mer RNA) | Tm (complementary 10-mer DNA) | ΔTm (Tm value - Tm value of PNA 10-1) (complementary 10-mer DNA) | also measured |
| --- | --- | --- | --- | --- | --- |
| Fethoc-C(12)TC-GG(6)C-TTA(6)-CC(1O2)T-GA(6)A-A(6)TT-NH2 (antisense CTCGGCTTACCTGAAATT; Fethoc N-cap, C-terminal amide, chemistry not fully specified) [DMD-ASO 6] | – | – | – | – | serum myoglobin level smaller than the mdx negative control group by (serum myoglobin): 68%; premature deaths (unscheduled death or sacrifice) (mdx mice): three premature deaths |
| Fmoc-GTA(5)-GA(5)T-CA(5)C-T-NH2 (GTAGATCACT; all peptide nucleic acid (PNA), [A(5)] at 3, 5, 8, 5' {Fmoc}, 3' {NH2}; model 10-mer peptide nucleic acid written N to C) [PNA 10-4] | 66 °C | +11 °C | 66 °C | +15 °C | – |
| Fmoc-GTA(5)-GA(5)T-C(1O2)AC-T-NH2 (GTAGATCACT; all peptide nucleic acid (PNA), [A(5)] at 3, 5, [C(1O2)] at 7, 5' {Fmoc}, 3' {NH2}; model 10-mer peptide nucleic acid written N to C) [PNA 10-7] | 69 °C | +18 °C | 69 °C | +18 °C | – |
| Fmoc-TA(5)A-A(5)TA(5)-CGC(1O2)-AA(5)A-A(5)AC-A(5)A-NH2 (TAAATACGCAAAAACAA; chemistry not fully specified) [SCN-ASO 8] | – | – | – | – | Tm Value, 10-mer DNA against C-Terminal (10-mer complementary DNA): 68.6 °C; Tm Value, 10-mer DNA against N-Terminal (10-mer complementary DNA): 74.0 °C; maximum therapeutic efficacy based on the von Frey scores in Day 19 [1]: 61%; decrease of sodium current (CoroNa) ([2]; PC3 cells, 100 zM): 30%; decrease of sodium current / sodium channel activity (CoroNa) ([2]; PC3 cells, 1,000 zM): 31%; average cellular fluorescence intensity (CoroNa Green) ([2]; PC3 cells, 1,000 zM, at 100 sec after 100 mM NaCl): 89.7 arbitrary unit; decrease of expression levels of SCN9A exons 4-6 (SYBR Green) (SCN9A mRNA; 10 zM): 50-70%; decrease of expression levels of SCN9A exons 4-6 (SYBR Green) (SCN9A mRNA; 100 zM): 70-80% |
| Fmoc-GTA-GAT-CAC-T-NH2 (GTAGATCACT; all peptide nucleic acid (PNA), 5' {Fmoc}, 3' {NH2}; model 10-mer peptide nucleic acid written N to C) [PNA 10-1, reference compound] | 55 °C | – | 51 °C | – | – |
